Data published in patent US10828301B2, “2,4-pyrimidinediamine compounds and their uses” (Rigel Pharmaceuticals, Inc, priority 2002, dated 2020).

Columns and labels:
[1] = biological target: FcγRI receptor-mediated degranulation; assay: FcγRI-mediated degranulation (activation with anti-human IgG Fab fragment); settings: cells not primed with IgE, activated with rabbit anti-human IgG Fab fragment
[2] = system: ionophore-induced degranulation of mast and/or basophil cells; assay: Ionophore (ionomycin or A23187)-induced degranulation counter screen; assay type: cell-based; settings: Mus musculus; high density BMMC, ionomycin activation, hexosaminidase release; read-out: BMMC Ionomycin Hexos. IC50
Excerpt: In addition to the FcεRI or FcγRI degranulation pathways discussed above, degranulation of mast and/or basophil cells can be induced by other agents. For example, ionomycin, a calcium ionophore that bypasses the early FcεRI or FcγRI signal transduction machinery of the cell, directly induces a calcium flux that triggers degranulation. Referring again to FIG. 2, activated PLCγ initiates pathways that lead to, among other things, calcium ion mobilization and subsequent degranulation. As illustrated, this Ca^2+ mobilization is triggered late in the FcεRI signal transduction pathway. […] Other ionophores that induce degranulation in this manner include A23187. The ability of granulation-inducing ionophores such as ionomycin to bypass the early stages of the FcεRI and/or FcγRI signaling cascades may be used as a counter screen to identify active compounds of the invention that specifically exert their degranulation-inhibitory activity by blocking or inhibiting the early FcεRI or FcγRI signaling cascades, as discussed above.
Assays suitable for determining the IC50 of ionophore-induced degranulation include any of the previously-described degranulation assays, with the modification that the cells are stimulated or activated with a degranulation-inducing calcium ionophore such as ionomycin or A23187 (A.G. Scientific, San Diego, Calif.) instead of anti-IgE antibodies or an IgE-specific allergen. Specific assays for assessing the ability of a particular 2,4-pyrimidinediamine compound of the invention to inhibit ionophore-induced degranulation are provided in the Examples section.

[3] = system: cultured human mast cells (CHMC); assay: CHMC low cell density IgE activation: tryptase and LTC4 assays; assay type: cell-based; settings: Homo sapiens, Mast cell, Low Density CHMC, anti-IgE activation
In short: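 Degranulation measured after 30 min anti-IgE challenge at 37° C of CHMC plated at 1000-1500 cells/well following 1 h preincubation. Readouts: LTC4 by ELISA on donor-specific diluted supernatants, and tryptase activity from a 30 min room-temperature substrate reaction.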

[4] = system: bone marrow derived mast cells (BMMC); assay: BMMC high cell density IgE activation: degranulation (hexosiminidase, histamine), leukotriene (LTC4) and cytokine (TNFalpha, IL-6) assays; assay type: cell-based; settings: Mus musculus, anti-IgE activation, hexosaminidase release, read-out: BMMC anti-IgE hexos IC50
[5] = system: basophils in whole human peripheral blood; assay: Basophil IgE activation: histamine release assay; assay type: cell-based; settings: Homo sapiens, anti-IgE activation
Protocol: The basophil activation assay was carried out using whole human peripheral blood from donors allergic to dust mites with the majority of the red blood cells removed by dextran sedimentation. Human peripheral blood was mixed 1:1 with 3% dextran T500 and RBCs were allowed to settle for 20-25 min. The upper fraction was diluted with 3 volumes of D-PBS and cells were spun down for 10 min at 1500 rpm, RT. Supernatant was aspirated and cells were washed in an equal volume MT-buffer. Finally, cells were resuspended in MT-buffer containing 0.5% DMSO in the original blood volume. 80 uL cells were mixed with 20 uL compound in the presence of 0.5% DMSO, in triplicate, in a V-bottom 96-well tissue culture plate. A dose range of 8 compound concentrations was tested resulting in a 10-point dose response curve including maximum (stimulated) and minimum (unstimulated) response. […] The cells were stimulated for 30 minutes at 37° C., 5% CO2. The plate was spun for 10 min at 1500 rpm at room temperature and 80 uL the supernatant was harvested for histamine content analysis using the histamine ELISA kit supplied by Immunotech. The ELISA was performed according to supplier's instructions.

[6] = system: cultured human mast cells (CHMC); assay: CHMC low cell density ionomycin activation: tryptase assay; assay type: cell-based; settings: Homo sapiens, Mast cell, Low Density CHMC, ionomycin activation
[7] = system: basophils in whole human peripheral blood; assay: Basophil ionomycin activation: histamine release assay; assay type: cell-based
Protocol: Assays for ionomycin-induced basophil cell degranulation were carried out as described for the Basophil IgE or Dustmite Activation Assay (Section 6.4.6, supra), with the exception that following incubation with compound, cells were stimulated with 20 μl of 2 μM ionomycin.

Jurkat cells = assay: Jurkat (T-cell) toxicity, light scatter; assay type: cell-based; settings: Homo sapiens, 18-24 hr, flow cytometric light scatter, read-out: Toxicity Jurkat Light Scat.
Protocol: Dilute Jurkat cells to 2×10^5 cells/ml in complete RPMI (10% heat-inactivated fetal bovine serum) media and incubate at 37° C., 5% CO2 for 18 hours. Add 65 ul cells at 7.7×10^5 cells/ml to a 96-well V-bottom plate (TC-treated, Costar) containing 65 ul 2× compound (final vehicle concentration is 0.5% DMSO, 1.5% MeOH). Mix, incubate plates for 18-24 hr at 37° C., 5% CO2. Toxicity was assessed by flow cytometric analysis of cellular light scatter

B-cell line BJAB = assay: BJAB (B-cell) toxicity, light scatter; assay type: cell-based; settings: Homo sapiens; BJAB B-cells, flow cytometric light scatter; read-out: Toxicity BJAB Light Scat.
Protocol: The B-cell line BJAB was cultured in log phase in RPMI1640+10% heat-inactivated fetal bovine serum, lx L-glutamine, lx penicillin, lx […] and 1× beta-mercaptoethanol at 37° C., 5% CO2. First, BJABs were harvested, spun and resuspended in culture medium to a concentration of 7.7×10^5 cells/mL. 65 uL cells were mixed with 65 uL compound, in duplicate and in the presence of 0.1% DMSO in a V-bottomed 96-well tissue culture plate. Cells were incubated with compound at various dilutions at 37° C., 5% CO2. Toxicity was assessed by flow cytometric analysis of cellular light scatter.

[8] = system: IgE-induced degranulation of tissue mast cells; assay: Mouse model of passive cutaneous anaphylaxis (PCA); assay type: in vivo; settings: for inhibition of the PCA response: oral route in a PEG-based formulation, data not shown
Protocol: This model provides a direct measure of IgE-induced degranulation of tissue mast cells. In this model, IgE primed animals are exposed to an allergen challenge, and the change in permeability of dermal vasculature that results from histamine release from mast cells is measured by change in the amount of dye leakage into surrounding tissue. Inhibition of mediator release by compounds that modulate mast cell degranulation is easily measured by extracting the dye from the tissue.
In the PCA assay mice are passively sensitized by intradermal injection with anti-dinitrophenol (DNP) IgE antibodies (Day −1). At predetermined times animals are treated with the test agent (Day 0). The modulatory effect of the agent on cutaneous mast cell degranulation is measured following intravenous injection of DNP conjugated to human serum albumin (HSA-DNP), together with Evans blue dye. The resulting cross-linking of the IgE receptor and subsequent mast cell degranulation-induced increase in vascular permeability is determined by measuring the amount of dye extravasation into the tissue. Dye is extracted from the tissue by formamide, and the absorbance of this extract is read at 620 nm.

[9] = LTC4 readout, read-out: CHMC anti-IgE LTC4
[10] = hexosaminidase readout, read-out: CHMC anti-IgE Hexos.
[11] = hexosaminidase readout, read-out: CHMC Ionomycin Hexos.
[12] = tryptase readout, read-out: CHMC anti-IgE Tryptase
[13] = tryptase readout, read-out: CHMC Ionomycin Tryptase

## CNC(=O)COc1cccc(Nc2ncc(F)c(Nc3ccc(OC(F)(F)F)c(Cl)c3)n2)c1 [Compound R920410, N4-(3-Chloro-4-trifluoromethoxyphenyl)-5-fluoro-N2-[3-(N-methylamino)carbonylmethyleneoxyphenyl]-2,4-pyrimidinediamine]
[1]
  inhibition of FcγRI-mediated degranulation: inhibit FcγRI-mediated degranulation

## CNC(=O)COc1cccc(Nc2ncc(F)c(Nc3ccc4c(c3)NC(=O)C(F)(F)O4)n2)c1 [Compound R921303, N4-[(2,2-Difluoro-4H-benzo[1,4]oxazin-3-one)-6-yl]-5-fluoro-N2-[3-(methylaminocarbonylmethyleneoxy)phenyl]-2,4-pyrimidinediamine]
[1]
  inhibition of FcγRI-mediated degranulation: inhibit FcγRI-mediated degranulation

## CCOc1ccc(Nc2nc(Nc3ccc(OC)c(OC)c3)ncc2F)cc1 [Compound R926108, N2-(3,4-Dimethoxyphenyl)-N4-(4-ethoxyphenyl)-5-fluoro-2,4-pyrimidinediamine]
[2]
  IC50: > 10 µM
[3]; [9]
  IC50: 760 nM
[3]; [10]
  IC50: 787 nM
[4]
  IC50: 900 nM
[5]
  IC50: 950 nM
[6]; [11]
  IC50: 6.4 µM
[7]; Homo sapiens
  IC50: > 10 µM
Jurkat cells
  IC50: > 10 µM
B-cell line BJAB
  IC50: > 10 µM

## COc1ccc(Nc2ncc(F)c(Nc3ccc(OC)c(OC)c3)n2)cc1OC [Compound R926110, N2,N4-Bis(3,4-dimethoxyphenyl)-5-fluoro-2,4-pyrimidinediamine]
[2]
  IC50: 4.5 µM
[3]; [9]
  IC50: 1420 nM
[3]; [10]
  IC50: 1200 nM
[3]; [12]
  IC50: 1070 nM
[4]
  IC50: 1000 nM
[5]
  IC50: 300 nM
[6]; [11]
  IC50: > 10 µM
[6]; [13]
  IC50: > 10 µM
[7]; Homo sapiens
  IC50: > 10 µM
Jurkat cells
  IC50: > 10 µM
B-cell line BJAB
  IC50: > 10 µM

## CCOc1ccc(Nc2nc(Nc3cccc(O)c3)ncc2F)cc1 [Compound R926146, N4-(4-Ethoxyphenyl)-N2-(3-hydroxyphenyl)-5-fluoro-2,4-pyrimidinediamine]
[2]
  IC50: 5 µM
[3]; [9]
  IC50: 1590 nM
[3]; [10]
  IC50: 761 nM
[4]
  IC50: 1350 nM
[6]; [11]
  IC50: 6.7 µM
Jurkat cells
  IC50: > 10 µM
B-cell line BJAB
  IC50: > 10 µM

## Oc1cccc(Nc2ncc(F)c(Nc3ccc4c(c3)OCCO4)n2)c1 [Compound R926210, N4-(3,4-Ethylenedioxyphenyl)-5-fluoro-N2-(3-hydroxyphenyl)-2,4-pyrimidinediamine]
[2]
  IC50: > 10 µM
[3]; [9]
  IC50: 800 nM
[4]
  IC50: 600 nM
[5]
  IC50: 370 nM
[7]; Homo sapiens
  IC50: > 10 µM
Jurkat cells
  IC50: > 10 µM
B-cell line BJAB
  IC50: > 10 µM

## Cc1cnc(Nc2cccc(O)c2)nc1Nc1cccc(O)c1 [Compound R926248, N2,N4-Bis(3-hydroxyphenyl)-5-methyl-2,4-pyrimidinediamine]
[3]; [9]
  IC50: 760 nM
[3]; [12]
  IC50: 900 nM
[6]; [13]
  IC50: > 10 µM
Jurkat cells
  IC50: > 10 µM
B-cell line BJAB
  IC50: > 10 µM

## Oc1cccc(Nc2ccnc(Nc3cccc(O)c3)n2)c1 [Compound R926249, N2,N4-Bis(3-hydroxyphenyl)-2,4-pyrimidinediamine]
[3]; [9]
  IC50: 250 nM
[3]; [12]
  IC50: 500 nM
[6]; [13]
  IC50: > 10 µM
Jurkat cells
  IC50: > 10 µM
B-cell line BJAB
  IC50: > 10 µM

## CC(=O)Oc1cccc(Nc2ncc(F)c(Nc3cccc(OC(C)=O)c3)n2)c1 [Compound R926387, N2,N4-Bis(3-acetyloxyphenyl)-5-fluoro-2,4-pyrimidinediamine]
[3]; [9]
  IC50: 700 nM
[3]; [12]
  IC50: 650 nM
[6]; [13]
  IC50: > 10 µM
Jurkat cells
  IC50: > 10 µM
B-cell line BJAB
  IC50: > 10 µM

## CNC(=O)COc1cccc(Nc2ncc(F)c(Nc3ccc4c(c3)OCCO4)n2)c1 [Compound R926495, N4-(3,4-Ethylenedioxyphenyl)-5-fluoro-N2-[3-(N-methylamino)carbonylmethyleneoxyphenyl]-2,4-pyrimidinediamine]
[7]
  IC50: > 10 µM
[8]
  inhibition of the PCA response: able to inhibit the PCA response

## CNC(=O)COc1cccc(Nc2ncc(F)c(Nc3cccc(O)c3)n2)c1 [Compound R926508, 5-Fluoro-N4-(3-hydroxyphenyl)-N2-[3-(N-methylamino)carbonylmethyleneoxyphenyl]-2,4-pyrimidinediamine]
[7]
  IC50: > 10 µM
[8]
  inhibition of the PCA response: able to inhibit the PCA response

## CNC(=O)COc1cccc(Nc2ncc(F)c(Nc3ccc4cc[nH]c4c3)n2)c1 [Compound R926745, 5-Fluoro-N4-[(1H)-indol-6-yl]-N2-[3-(N-methylamino)carbonylmethyleneoxyphenyl]-2,4-pyrimidinediamine]
[8]
  inhibition of the PCA response: able to inhibit the PCA response

## Cc1cc(Nc2ncc(F)c(Nc3ccc4c(c3)NC(=O)C(F)(F)O4)n2)cc(Cl)c1O [Compound R926971]
[1]
  inhibition of FcγRI-mediated degranulation: inhibit FcγRI-mediated degranulation

## CNC(=O)COc1cccc(Nc2ncc(F)c(Nc3ccc4c(n3)NC(=O)C(C)(C)O4)n2)c1 [Compound R940347, N4-[(2,2-Dimethyl-4H-5-pyrido[1,4]oxazin-3-one)-6-yl]-5-fluoro-N2-[3-(methylaminocarbonylmethyleneoxy)phenyl]-2,4-pyrimidinediamine]
[1]
  inhibition of FcγRI-mediated degranulation: inhibit FcγRI-mediated degranulation

## O=C1Nc2cc(Nc3ncc(F)c(Nc4ccc5c(c4)NC(=O)C(F)(F)O5)n3)ccc2OC1(F)F [Compound R940352, N2,N4-[(2,2-Difluoro-4H-benzo[1,4]oxazin-3-one)-6-yl]-5-fluoro-2,4-pyrimidinediamine]
[1]
  inhibition of FcγRI-mediated degranulation: inhibit FcγRI-mediated degranulation

## CN(C)CCOC(c1ccccc1)c1ccccc1 [diphenhydramine, reference compound]
[8]; mouse, in vivo
  inhibition of the PCA response / FcεR-mediated vascular leakage (in words): inhibit the PCA response
